From patent publication US8173668B1 (Alcon Research, Ltd., priority 2007, dated 2012)
Like-named read-outs stand apart in the source and are kept apart here.

Experiments:
[1] = molecular target: T1, B2-receptors in h-NPE cells (Homo sapiens, UniProt P30411); test: [Ca2+]i mobilization (FLIPR) in h-NPE cells, agonist mode; assay type: cell-based; conditions: for Emax: read-out: Intrinsic Activity (Emax, % max relative to BK)
T1 construct: B2-receptor proteins in h-TM, h-CM and h-NPE cells; endogenous in cells; host or cells: human trabecular meshwork (h-TM), human ciliary muscle (h-CM) and human non-pigmented ciliary epithelial (h-NPE) cells
T1 sequence (P30411 1-391): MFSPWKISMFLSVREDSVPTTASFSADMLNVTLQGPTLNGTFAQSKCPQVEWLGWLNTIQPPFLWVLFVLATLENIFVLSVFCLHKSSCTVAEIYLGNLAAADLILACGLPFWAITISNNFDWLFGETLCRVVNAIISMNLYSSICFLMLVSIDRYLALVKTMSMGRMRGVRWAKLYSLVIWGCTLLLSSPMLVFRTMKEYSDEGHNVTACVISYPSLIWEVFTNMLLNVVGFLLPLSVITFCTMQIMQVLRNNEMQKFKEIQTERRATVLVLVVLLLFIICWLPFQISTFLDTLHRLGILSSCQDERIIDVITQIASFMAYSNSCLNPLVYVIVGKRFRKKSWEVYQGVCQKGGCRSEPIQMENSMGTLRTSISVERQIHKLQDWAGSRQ
Method: (§1) On the day of the experiment, one vial of FLIPR Calcium Assay Kit dye is re-suspended in 50 mL of a FLIPR buffer consisting of Hank's Balanced Salt Solution (HBSS), 20 mM HEPES, and 2.5 mM probenecid, pH 7.4. Cells are loaded with the calcium-sensitive dye by addition of an equal volume (50 μL) to each well of the 96-well plate and incubated with dye for 1 h at 23° C. After this time, the test compound plate and cell plate are placed in the FLIPR instrument. At the beginning of an experimental run, a signal test is performed to check the basal fluorescence signal from the dye-loaded cells and the uniformity of the signal across the plate. The basal fluorescence is adjusted between 8000-12000 counts by modifying the exposure time, the camera F-stop, or the laser power. Instrument settings for a typical assay are the following: laser power 0.3-0.6 W, camera F-stop F/2, and exposure time 0.4 sec.
(§2) Fluorescence data are collected in real-time at 1.0 sec intervals for the first 60 secs and at 6.0 sec intervals for an additional 120 secs. […] The data are then analyzed using an automated, iterative, sigmoidal curve-fitting computer program to obtain the potency and intrinsic activities of the test agents as previously described (Sharif et al. J. Pharmacol. Exp. Ther. 286: 1094-1102, 1998; Sharif et al. Invest. Ophthalmol. Vis. Sci. 39:2562-2571, 1998; Kelly et al. J. Pharmacol. Exp. Ther. 304: 238-245, 2003). The sources of materials and reagents for such assays can be found in the references cited above.

[2] = molecular target: T2, B2-receptors in h-CM cells (Homo sapiens, UniProt P30411); test: [Ca2+]i mobilization (FLIPR) in h-CM cells, agonist mode; assay type: cell-based; conditions: read-out: Intrinsic Activity (Emax, % max relative to BK)
T2 construct: B2-receptor proteins in h-TM, h-CM and h-NPE cells; endogenous in cells; host or cells: human trabecular meshwork (h-TM), human ciliary muscle (h-CM) and human non-pigmented ciliary epithelial (h-NPE) cells
T2 sequence (P30411 1-391): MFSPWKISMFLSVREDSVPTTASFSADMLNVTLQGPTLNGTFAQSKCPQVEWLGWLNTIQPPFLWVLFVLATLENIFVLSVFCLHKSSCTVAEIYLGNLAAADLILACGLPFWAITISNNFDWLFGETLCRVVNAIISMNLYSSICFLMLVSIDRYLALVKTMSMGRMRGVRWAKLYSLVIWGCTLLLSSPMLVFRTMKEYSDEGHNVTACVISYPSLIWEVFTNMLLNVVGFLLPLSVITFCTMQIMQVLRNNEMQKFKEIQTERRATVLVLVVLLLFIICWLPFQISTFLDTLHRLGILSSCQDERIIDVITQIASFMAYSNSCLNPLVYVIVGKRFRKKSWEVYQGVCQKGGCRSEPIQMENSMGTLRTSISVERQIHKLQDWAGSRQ
Method: as §1, §2

[3] = molecular target: T3, B2-receptors in h-TM cells (Homo sapiens, UniProt P30411); test: [Ca2+]i mobilization (FLIPR) in h-TM cells, agonist mode; assay type: cell-based; conditions: for Emax: HTM, read-out: Intrinsic Activity (Emax, % max relative to BK)
T3 construct: B2-receptor proteins in h-TM, h-CM and h-NPE cells; endogenous in cells; host or cells: human trabecular meshwork (h-TM), human ciliary muscle (h-CM) and human non-pigmented ciliary epithelial (h-NPE) cells
T3 sequence (P30411 1-391): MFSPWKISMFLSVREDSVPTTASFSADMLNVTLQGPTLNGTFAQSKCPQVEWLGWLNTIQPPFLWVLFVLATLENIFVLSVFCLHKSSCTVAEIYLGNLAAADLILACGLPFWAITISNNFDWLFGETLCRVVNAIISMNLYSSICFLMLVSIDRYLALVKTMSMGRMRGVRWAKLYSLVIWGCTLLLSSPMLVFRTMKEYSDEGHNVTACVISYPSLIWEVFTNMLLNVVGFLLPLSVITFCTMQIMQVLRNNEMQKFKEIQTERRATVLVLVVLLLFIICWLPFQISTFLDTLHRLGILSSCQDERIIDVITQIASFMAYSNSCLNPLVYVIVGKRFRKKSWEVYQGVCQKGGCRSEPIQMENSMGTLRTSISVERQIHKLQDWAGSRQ
Method: as §1, §2

[4] = tested on: conscious ocular hypertensive cynomolgus monkey eyes; test: IOP response in lasered (hypertensive) eyes of conscious cynomolgus monkeys, topical ocular; assay type: in vivo; conditions: for % Change in IOP: Table 10, 300 μg topical ocular
Method: Intraocular pressure (IOP) is determined with an Alcon Pneumatonometer (Alcon Laboratories, Inc., Fort Worth, Tex.) after light corneal anesthesia with 0.1% proparacaine. Right eyes are hypertensive as a result of laser trabeculoplasty. After a baseline IOP measurement, test compound is instilled in the right eyes only of 8-10 cynomolgus monkeys. Vehicle is instilled in the right eyes of 5-6 additional animals. Subsequent IOP measurements are taken at 1, 3, and 6 hours. IOP measurements are also taken on left eyes (normotensive and untreated) at each of these time points. The percent change in IOP from baseline is determined for each animal for every IOP measurement (Sharif et al. J. Ocular Pharmacol. Ther. 17: 305-317, 2001; May et al., J Pharmacol Exp Ther. 306: 301-309, 2003; Sharif et al. Invest. Ophthalmol. Vis. Res. 47: 4001-4010, 2006). Group mean and standard error of the mean (SEM) are calculated for each time point. […] In cases where the compound of invention has poor ocular bioavailability, the compound may need to be administered intracamerally or intravitreally in order to observe the IOP-lowering efficacy.
The IOP-lowering effect was slow to develop but significant IOP reduction was observed even 3 hours post-dosing with maximum ocular hypotension observed 16-48 hours post-dosing (Tables 6-8; FIGS. 3b-5).

[5] = molecular target: T4, BK B2-Receptor in h-NPE cells (Homo sapiens, UniProt P30411); test: Antagonism of FR-190997-induced [Ca2+]i mobilization in h-NPE cells; assay type: cell-based; conditions: FR-190997 as the agonist, read-out: Antagonist Potency (Ki)
T4 construct: B2-receptor proteins in h-TM, h-CM and h-NPE cells; endogenous in cells; host or cells: human trabecular meshwork (h-TM), human ciliary muscle (h-CM) and human non-pigmented ciliary epithelial (h-NPE) cells
T4 sequence (P30411 1-391): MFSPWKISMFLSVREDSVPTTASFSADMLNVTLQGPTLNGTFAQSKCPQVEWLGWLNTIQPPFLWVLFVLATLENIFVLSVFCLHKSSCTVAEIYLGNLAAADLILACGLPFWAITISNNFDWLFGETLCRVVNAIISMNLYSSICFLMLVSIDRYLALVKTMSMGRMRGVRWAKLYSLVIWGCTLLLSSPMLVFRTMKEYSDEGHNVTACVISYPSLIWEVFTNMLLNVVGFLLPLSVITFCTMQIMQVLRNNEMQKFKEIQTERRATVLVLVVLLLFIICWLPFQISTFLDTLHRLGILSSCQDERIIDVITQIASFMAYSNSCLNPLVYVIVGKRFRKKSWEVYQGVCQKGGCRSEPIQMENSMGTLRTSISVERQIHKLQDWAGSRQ
Method: as §1, §2

Structure (SMILES): N=C(N)NCCC[C@H](N)C(=O)N1CCC[C@H]1C(=O)N1CCC[C@H]1C(=O)NCC(=O)N[C@@H](Cc1ccccc1)C(=O)N[C@@H](CO)C(=O)N1CCC[C@H]1C(=O)N[C@@H](Cc1ccccc1)C(=O)O [Des-Arg^9-BK]
- Emax ([1]; h-NPE cells, mean ± SEM): 70%
- Emax ([2]; h-CM cells, mean ± SEM): 94%
- Emax ([3]; h-TM cells, mean ± SEM): 112%

Structure (SMILES): CNC(=O)c1ccc(/C=C/C(=O)NCC(=O)N(C)c2ccc(Cl)c(COc3cccc4ccc(C)nc34)c2Cl)cc1 [FR-165649, reference compound]
- modulation of IOP ([4]; 300 μg topically administered): failed to modulate IOP
- % Change in IOP ([4]; Dose 1/1 hr): 1.0 ± 3.1%
- % Change in IOP ([4]; Dose 1/3 hr): 0.7 ± 3.5%
- % Change in IOP ([4]; Dose 1/6 hr): −6.2 ± 4.7%
- % Change in IOP ([4]; Dose 1/24 hr): −4.0 ± 3.2%
- Ki [5]: 146 nM

Structure (SMILES): N=C(N)NCCC[C@H](NC(=O)[C@H](Cc1ccccc1)NC(=O)[C@@H]1CCCN1C(=O)[C@H](CO)NC(=O)[C@H](Cc1ccccc1)NC(=O)CNC(=O)[C@@H]1C[C@@H](O)CN1C(=O)[C@@H]1CCCN1C(=O)[C@@H](N)CCCNC(=N)N)C(=O)O [Hyp^3-BK, Arg-Pro-Hyp-Gly-Phe-Ser-Pro-Phe-Arg]
- EC50 [1]: 6 ± 0.6 nM
- Emax [1]: 93%
- Emax [2]: 105%
- EC50 [3]: 0.9 ± 0.3 nM
- Emax [3]: 110%

Structure (SMILES): N=C(N)NCCC[C@H](NC(=O)[C@H](Cc1ccccc1)NC(=O)[C@@H]1CCCN1C(=O)[C@H](CO)NC(=O)[C@H](Cc1ccccc1)NC(=O)CNC(=O)[C@@H]1CCCN1C(=O)[C@@H]1CCCN1C(=O)[C@H](CCCNC(=N)N)NC(=O)[C@@H](N)CCCCN)C(=O)O [Lys-BK]
- Emax ([1]; h-NPE cells, mean ± SEM): 90%
- Emax ([2]; h-CM cells, mean ± SEM): 115%
- Emax ([3]; h-TM cells, mean ± SEM): 115%

Structure (SMILES): CSCC[C@H](N)C(=O)N[C@@H](CCCCN)C(=O)N[C@@H](CCCNC(=N)N)C(=O)N1CCC[C@H]1C(=O)N1CCC[C@H]1C(=O)NCC(=O)N[C@@H](Cc1ccccc1)C(=O)N[C@@H](CO)C(=O)N1CCC[C@H]1C(=O)N[C@@H](Cc1ccccc1)C(=O)N[C@@H](CCCNC(=N)N)C(=O)O [Met-Lys-BK]
- Emax ([1]; h-NPE cells, mean ± SEM): 77%
- Emax ([2]; h-CM cells, mean ± SEM): 110%
- Emax ([3]; h-TM cells, mean ± SEM): 111%
